Measured values as given in patent publication US20040167188A1, “Protein-tyrosine phosphatase inhibitors and uses thereof” (priority 2003, published 2004).
Where two headings read alike, the source gives them in different places.

Columns and labels:
LAR = target: T1, LAR (Homo sapiens, UniProt P10586); test: Inhibition constant determination, selectivity panel: LAR (pNPP hydrolysis); format: biochemical; conditions: competitive Ki; pNPP substrate; read-out: Phosphatase Inhibition Constants (Kic) LAR
T1 construct: purchased New England Biolabs P0750L
T1 sequence (P10586 1301-1639 limits assumed): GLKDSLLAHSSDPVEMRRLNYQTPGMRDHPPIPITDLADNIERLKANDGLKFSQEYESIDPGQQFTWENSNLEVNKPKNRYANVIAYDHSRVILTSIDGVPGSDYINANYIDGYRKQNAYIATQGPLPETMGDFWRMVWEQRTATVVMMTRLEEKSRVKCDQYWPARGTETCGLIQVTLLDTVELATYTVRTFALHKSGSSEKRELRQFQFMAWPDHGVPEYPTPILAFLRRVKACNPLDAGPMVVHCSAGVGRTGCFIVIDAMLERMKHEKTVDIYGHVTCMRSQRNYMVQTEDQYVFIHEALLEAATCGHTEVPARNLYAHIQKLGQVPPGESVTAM

[1] = target: T2, CDC25c (fusion with glutathione-S-transferase) (Homo sapiens, UniProt P30307); test: Inhibition constant determination, selectivity panel: cdc25c (pNPP hydrolysis); format: biochemical; conditions: competitive Ki; pNPP substrate; read-out: Phosphatase Inhibition Constants (Kic) Cdc25c
T2 sequence (P30307 1-473): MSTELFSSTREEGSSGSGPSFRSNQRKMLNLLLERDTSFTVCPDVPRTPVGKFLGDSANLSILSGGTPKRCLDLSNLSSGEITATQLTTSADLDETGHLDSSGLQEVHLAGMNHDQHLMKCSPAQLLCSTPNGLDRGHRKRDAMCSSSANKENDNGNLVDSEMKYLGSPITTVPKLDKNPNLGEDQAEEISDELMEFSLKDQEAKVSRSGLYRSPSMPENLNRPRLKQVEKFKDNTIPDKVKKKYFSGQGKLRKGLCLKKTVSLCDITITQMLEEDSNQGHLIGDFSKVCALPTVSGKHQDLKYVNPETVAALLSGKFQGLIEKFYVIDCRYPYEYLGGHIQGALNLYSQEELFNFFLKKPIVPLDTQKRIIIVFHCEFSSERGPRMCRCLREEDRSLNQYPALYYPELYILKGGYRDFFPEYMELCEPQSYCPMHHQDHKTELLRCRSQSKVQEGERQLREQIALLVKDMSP
Procedure: CDC25c was expressed as a fusion with glutathione-S— transferase (aka GST) in E. coli. Cells were lysed and debris removed as described for SHP-2, except lysis was in PBS (GibcoBRL Life Technologies, Grand Island, N.Y., Stock # 70011-044, diluted 10-fold). The soluble proteins were chromatographed on Glutathione-Sepharose FF (Amersham Pharmacia Biotech) and eluted with 10 mM reduced glutathione in 25 mM TRIS-HCl, pH 7.5, 150 mM NaCl. Fractions were assayed, pooled and stored as decribed for PTP1B.
(§1) The Kic and Kiu values are calculated as described for PTP1B. The assays were performed as described for PTP-1B except for the following changes. All the phosphatases except PP2B use the same 2× assay buffer as PTP1B. PP2B uses a 2× assay buffer which contains 100 mM TRIS-HCl pH 8.6, 40 mM MgCl2, 0.2 mM CaCl2, 6 mM DTT, 0.2 mg/mL BSA. The concentrations of pNPP present in 40 ul were the same for TCPTP, CD45, LAR and PTP1B. For PP2B they were 24 mM, 60 mM, 150 mM, and 375 mM; for cdc25C they were 16 mM, 40 mM, 100 mM, and 250 mM; for SHP-2 they were 6.4 mM, 16 mM, 40 mM, and 100 mM.

TCPTP [2] = target: T3, TCPTP (Homo sapiens, UniProt P17706); test: biochemical
T3 sequence (P17706 1-283): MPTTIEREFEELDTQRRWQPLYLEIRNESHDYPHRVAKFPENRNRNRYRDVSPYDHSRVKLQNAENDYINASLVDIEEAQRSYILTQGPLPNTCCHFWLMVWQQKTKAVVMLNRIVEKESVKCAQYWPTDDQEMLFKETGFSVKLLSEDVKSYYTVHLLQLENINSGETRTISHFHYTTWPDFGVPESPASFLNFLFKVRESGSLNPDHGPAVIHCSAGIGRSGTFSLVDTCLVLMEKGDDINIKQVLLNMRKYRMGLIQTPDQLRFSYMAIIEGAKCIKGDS

CD45 = target: T4, CD45 (Homo sapiens, UniProt P08575); test: Inhibition constant determination, selectivity panel: CD45 (pNPP hydrolysis); format: biochemical; conditions: competitive Ki; pNPP substrate; read-out: Phosphatase Inhibition Constants (Kic) CD45
T4 construct: purchased Biomol Research Laboratories, Inc. SE-135
T4 sequence (P08575 609-1306 limits assumed): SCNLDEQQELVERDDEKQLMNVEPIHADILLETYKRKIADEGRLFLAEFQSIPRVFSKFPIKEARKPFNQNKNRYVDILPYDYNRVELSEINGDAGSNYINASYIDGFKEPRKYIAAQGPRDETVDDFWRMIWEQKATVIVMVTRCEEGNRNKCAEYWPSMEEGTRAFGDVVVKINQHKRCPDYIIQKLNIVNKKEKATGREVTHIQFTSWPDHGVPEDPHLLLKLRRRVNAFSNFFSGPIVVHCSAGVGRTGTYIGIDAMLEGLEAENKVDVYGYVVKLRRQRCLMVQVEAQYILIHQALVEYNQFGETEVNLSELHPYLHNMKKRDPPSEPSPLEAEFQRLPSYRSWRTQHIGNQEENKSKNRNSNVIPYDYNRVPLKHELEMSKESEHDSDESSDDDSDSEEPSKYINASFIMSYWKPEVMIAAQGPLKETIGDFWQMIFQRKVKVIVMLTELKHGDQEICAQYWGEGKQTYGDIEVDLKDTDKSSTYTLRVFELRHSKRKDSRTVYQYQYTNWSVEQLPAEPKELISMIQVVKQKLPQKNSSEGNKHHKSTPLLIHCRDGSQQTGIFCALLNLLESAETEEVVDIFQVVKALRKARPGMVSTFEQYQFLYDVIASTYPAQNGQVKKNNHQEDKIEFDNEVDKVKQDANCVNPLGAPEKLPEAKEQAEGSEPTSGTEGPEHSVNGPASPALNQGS
Procedure: CD45 was obtained commercially (catalog#SE-135 Biomol Research Laboratories, Inc. 5120 Butler Pike, Plymouth Meeting, Pa.).
as §1

Bovine PP2B = target: T5, Bovine PP2B (Bos taurus, UniProt P48452); test: Inhibition constant determination, selectivity panel: PP2B (pNPP hydrolysis); format: biochemical; conditions: competitive Ki; pNPP substrate; read-out: Phosphatase Inhibition Constants (Kic) PP2B
T5 construct: purchased Sigma C1907
T5 sequence (P63099 2-170 partner limits assumed, other chains not shown): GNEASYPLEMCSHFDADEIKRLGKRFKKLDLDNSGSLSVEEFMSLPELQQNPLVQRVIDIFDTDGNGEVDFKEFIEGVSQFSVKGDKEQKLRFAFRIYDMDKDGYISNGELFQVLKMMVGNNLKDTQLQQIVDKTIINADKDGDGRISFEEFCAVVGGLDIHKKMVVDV
Procedure: Bovine PP2B was obtained commercially (C1907 Sigma, St. Louis, Mo.).
as §1

SHP-2 (full length) = target: T6, SHP-2 (full length) (Homo sapiens, UniProt Q06124); test: Inhibition constant determination, selectivity panel: SHP-2 (pNPP hydrolysis); format: biochemical; conditions: competitive Ki; pNPP substrate; read-out: Phosphatase Inhibition Constants (Kic) SHP-2
T6 sequence (Q06124 1-593): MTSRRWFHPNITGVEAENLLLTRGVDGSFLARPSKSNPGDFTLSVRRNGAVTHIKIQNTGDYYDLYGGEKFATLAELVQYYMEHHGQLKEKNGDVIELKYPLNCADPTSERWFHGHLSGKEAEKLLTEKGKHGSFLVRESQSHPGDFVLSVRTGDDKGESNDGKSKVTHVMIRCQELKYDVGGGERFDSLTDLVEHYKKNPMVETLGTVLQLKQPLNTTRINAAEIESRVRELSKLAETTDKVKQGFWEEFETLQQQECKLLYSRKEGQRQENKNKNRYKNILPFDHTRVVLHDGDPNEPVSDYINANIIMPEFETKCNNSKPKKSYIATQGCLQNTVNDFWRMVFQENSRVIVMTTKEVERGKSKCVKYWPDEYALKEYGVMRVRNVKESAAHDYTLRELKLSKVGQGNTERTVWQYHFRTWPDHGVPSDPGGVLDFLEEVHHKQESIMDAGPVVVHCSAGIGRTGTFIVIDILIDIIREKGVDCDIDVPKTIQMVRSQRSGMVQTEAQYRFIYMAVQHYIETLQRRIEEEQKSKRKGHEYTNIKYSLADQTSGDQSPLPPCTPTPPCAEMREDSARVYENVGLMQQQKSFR
Procedure: Cells were lysed with a French press following by centrifugation to remove debris. Proteins were precipitated with 50% saturated ammonium sulfate, recovered by centrifugation, and chromatographed on Sephadex G-25 (Amersham Pharmacia Biotech) in 50 mM Tris-HCl pH 8, 10 mM NaCl, 1 mM DTT, 1 mM EDTA. The void volume was pooled and chromatographed on Q-Sepharose-FF in the same buffer, and SHP-2 was eluted with a 0-150 mM gradient of NaCl in the same buffer. Fractions were assayed, pooled, and stored as described for PTP1B.
as §1

[3] = target: T7, Human protein tyrosine phosphatase 1B (PTP1B, amino acid residues 1-321) (Homo sapiens, UniProt P18031); conditions: read-out: Phosphatase Inhibition Constants (Kic) PTP1B; competitive Ki, +/- S.D.; pNPP substrate
T7 sequence (P18031 1-321): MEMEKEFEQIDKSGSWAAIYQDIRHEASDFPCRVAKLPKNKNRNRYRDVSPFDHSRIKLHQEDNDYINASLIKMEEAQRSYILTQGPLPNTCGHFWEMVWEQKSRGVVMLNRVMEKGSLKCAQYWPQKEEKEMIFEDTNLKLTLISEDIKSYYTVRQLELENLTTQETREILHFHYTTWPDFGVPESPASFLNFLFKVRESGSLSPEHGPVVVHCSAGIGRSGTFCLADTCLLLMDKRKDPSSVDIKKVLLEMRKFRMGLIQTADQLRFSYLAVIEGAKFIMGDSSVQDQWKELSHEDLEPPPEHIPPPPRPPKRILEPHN

TCPTP [4] = target: T3, TCPTP; conditions: read-out: Phosphatase Inhibition Constants (Kic) TC-PTP; competitive Ki, +/- S.D.; pNPP substrate

Row | Ki (LAR) [µM] | Ki [1] [µM] | Ki (TCPTP [2]) [µM] | Ki (CD45) [µM] | Ki (Bovine PP2B) [µM] | Ki (SHP-2 (full length)) [µM] | Ki [3] [µM] | Ki (TCPTP [4]) [µM] | SMILES
1 | > 300 | > 300 | 202 | > 300 | > 300 | > 300 | – | – | COC(=O)c1c(O)cccc1OC/C=C/c1cccc(-c2cc(C(=O)O)no2)c1 [Example 1, 5-(3-((1E)-3-(3-hydroxy-2-(methoxycarbonyl)phenoxy)prop-1-enyl)phenyl)isoxazole-3-carboxylic Acid]
2 | – | > 300 | – | > 300 | > 300 | > 300 | 6.9 | 164 | COC(=O)c1c(O)cccc1OC/C=C/c1ccc(F)c(-c2cc(C(=O)O)no2)c1 [Example 8, 5-(2-fluoro-5-((1E)-3-(3-hydroxy-2-(methoxycarbonyl)phenoxy)prop-1-enyl)phenyl)isoxazole-3-carboxylic Acid]
